{"source": "patent US6025378A", "about": "“Bicyclic heterocyclic compounds” (Bayer Aktiengesellschaft, priority 1995, dated 2000)", "data": [{"tested_on": "ApoB-100-associated lipoproteins released from HepG2 cells", "test": "Inhibition of the release of ApoB-100-associated lipoproteins from cultured hepatic HepG2 cells (immunoassay for human LDL)", "assay_type": "cell-based", "details": "HepG2 cells; culture supernatant; absorption at 450 nm inhibited by 50% vs solvent control; read-out: Apo B IC50", "procedure": "(§1) 1. Inhibition of the Release of ApoB-100-associated Lipoproteins\n(§2) The test for detection of the inhibition of the release of ApoB-100-associated lipoproteins from hepatic cells was carried out in vitro with cultured hepatic cells, preferably with cells of the human line HepG2. These cells are cultured under standard conditions in medium for culture of eukaryotic cells, preferably in RPMI 1640 with 10% foetal calf serum. HepG2 cells synthesize and secrete into the culture supernatant ApoB-100-associated lipoprotein particles, which are in principle built up similarly to the VLDL and LDL particles which are to be found in plasma.\n(§3) These particles can be detected with an immunoassay for human LDL. This immunoassay is carried out with antibodies which have been induced against human LDL in rabbits under standard conditions. The anti-LDL antibodies (rab-anti-LDL-Ab) were purified by affinity chromatography on an immunosorbent with human LDL. These purified rab-anti-LDL-Ab are adsorbed onto the surface of plastic. This adsorption is expediently carried out on the plastic surface of microtiter plates with 96 wells, preferably on MaxiSorp plates. If ApoB-100-associated particles are present in the supernatant of Hep-G2 cells, these can bond to the insolubilized rab-anti-LDL-Ab, and an immune complex bonded to the plastic surface is formed. Non-bonded proteins are removed by washing The immune complex on the plastic source is detected with monoclonal antibodies, which have been induced against human LDL and purified under standard conditions. These antibodies were conjugated with the enzyme peroxidase. Peroxidase converts the colourless substrate TMB into a coloured product in the presence of H2 O2. After acidification of the reaction mixture with H2 SO4, the specific absorption of light is determined at 450 nm, this being a measure of the amount of ApoB-100-associated particles wich had been secreted by the HepG2 cells into the culture supernatant.\n(§4) The IC50 value indicates the concentration of substance at which the absorption of light is inhibited by 50% compared with the control (solvent control without the substance).", "units": {"IC50": "nM"}, "values": [{"smiles": "CSc1nc2ccccc2n1Cc1ccc(C(C(=O)N[C@@H](CO)c2ccccc2)C2CCCC2)cc1", "note": "(single isomer, unassigned) [Example 3]", "IC50": 11.6}, {"smiles": "CSc1nc2ccccc2n1Cc1ccc(C(C(=O)N[C@@H](CO)c2ccccc2)C2CCCC2)cc1", "note": "(single isomer, unassigned) [Example 4]", "IC50": 298}, {"smiles": "CSc1nc2ccccc2n1Cc1ccc(C(C(=O)N[C@@H](CO)c2ccccc2)C2CCCCCC2)cc1", "note": "(single isomer, unassigned) [Example 6]", "IC50": 8}, {"smiles": "CSc1nc2ccccc2n1Cc1ccc(C(C(=O)N[C@@H](CO)c2ccccc2)C2CCCCCC2)cc1", "note": "(single isomer, unassigned) [Example 7]", "IC50": 150}, {"smiles": "O=C(N[C@@H](CO)c1ccccc1)C(c1ccc(Cn2c(SCc3ccccc3)nc3ccccc32)cc1)C1CCCC1", "note": "(single isomer, unassigned) [Example 13]", "IC50": 14.3}, {"smiles": "O=C(CSc1nc2ccccc2n1Cc1ccc(C(C(=O)N[C@@H](CO)c2ccccc2)C2CCCC2)cc1)c1ccccc1", "note": "(single isomer, unassigned) [Example 18]", "IC50": 930}, {"smiles": "O=C(CSc1nc2ccccc2n1Cc1ccc(C(C(=O)N[C@@H](CO)c2ccccc2)C2CCCC2)cc1)c1ccccc1", "note": "(single isomer, unassigned) [Example 19]", "IC50": 388}, {"smiles": "Cc1cc2nc(C(F)(F)F)n(Cc3ccc(C(C(=O)N[C@@H](CO)c4ccccc4)C4CCCC4)cc3)c2cc1C", "note": "(single isomer, unassigned) [Example 23]", "IC50": 147}, {"smiles": "Cc1cc2nc(C(F)(F)F)n(Cc3ccc(C(C(=O)N[C@@H](CO)c4ccccc4)C4CCCC4)cc3)c2cc1C", "note": "(single isomer, unassigned) [Example 24]", "IC50": 16.3}, {"smiles": "O=C(N[C@@H](CO)c1ccccc1)C(c1ccc(Cn2c(-c3cscn3)nc3ccccc32)cc1)C1CCCC1", "note": "(single isomer, unassigned) [Example 26]", "IC50": 4.5}, {"smiles": "O=C(N[C@@H](CO)c1ccccc1)C(c1ccc(Cn2c(-c3cscn3)nc3ccccc32)cc1)C1CCCC1", "note": "(single isomer, unassigned) [Example 27]", "IC50": 90.9}, {"smiles": "O=C(N[C@@H](CO)c1ccccc1)C(c1ccc(Cn2c(-c3cscn3)nc3ccccc32)cc1)C1CCCCCC1", "note": "(single isomer, unassigned) [Example 30]", "IC50": 112}, {"smiles": "O=C(N[C@@H](CO)c1ccccc1)C(c1ccc(Cn2c(-c3cscn3)nc3ccccc32)cc1)C1CCCCCC1", "note": "(single isomer, unassigned) [Example 31]", "IC50": 7.3}, {"smiles": "Cc1nc(-c2nc3ccccc3n2Cc2ccc(C(C(=O)N[C@@H](CO)c3ccccc3)C3CCCC3)cc2)cs1", "note": "(single isomer, unassigned) [Example 34]", "IC50": 26.6}, {"smiles": "Cc1nc(-c2nc3ccccc3n2Cc2ccc(C(C(=O)N[C@@H](CO)c3ccccc3)C3CCCC3)cc2)cs1", "note": "(single isomer, unassigned) [Example 35]", "IC50": 11.2}, {"smiles": "Cc1cccc2c1[nH]c(=S)n2Cc1ccc(C(C(=O)N[C@@H](CO)c2ccccc2)C2CCCC2)cc1", "note": "(some centres unmarked) [Example 53]", "IC50": 1690}, {"smiles": "Cc1cccc2c1[nH]c(=S)n2Cc1ccc(C(C(=O)N[C@@H](CO)c2ccccc2)C2CCCC2)cc1", "note": "(some centres unmarked) [Example 54]", "IC50": 60.2}, {"smiles": "Cc1cccc2c1[nH]c(=S)n2Cc1ccc(C(C(=O)N[C@@H](CO)c2ccccc2)C2CCCC2)cc1", "note": "(some centres unmarked) [Example 55]", "IC50": 19.5}, {"smiles": "O=C(N[C@@H](CO)c1ccccc1)C(c1ccc(CN2C(=O)COc3cccnc32)cc1)C1CCCCCC1", "note": "(some centres unmarked) [Example 57]", "IC50": 5}, {"smiles": "O=C(N[C@@H](CO)c1ccccc1)C(c1ccc(CN2C(=O)COc3cccnc32)cc1)C1CCCCCC1", "note": "(some centres unmarked) [Example 58]", "IC50": 251}, {"smiles": "O=C(N[C@@H](CO)c1ccccc1)C(c1ccc(CN2C(=O)c3ccccc3C2=O)cc1)C1CCCCCC1", "note": "(some centres unmarked) [Example 60]", "IC50": 9.7}, {"smiles": "O=C(N[C@@H](CO)c1ccccc1)C(c1ccc(CN2C(=O)c3ccccc3C2=O)cc1)C1CCCCCC1", "note": "(some centres unmarked) [Example 61]", "IC50": 38.9}, {"smiles": "O=C(N[C@@H](CO)c1ccccc1)C(c1ccc(CN2C(=O)c3ccccc3C2=O)cc1)C1CCCCCC1", "note": "(some centres unmarked) [Example 62]", "IC50": 123}]}, {"tested_on": "ApoB-100-associated lipoproteins released from HepG2 cells", "test": "Inhibition of the release of ApoB-100-associated lipoproteins from cultured hepatic HepG2 cells (immunoassay for human LDL)", "assay_type": "cell-based", "details": "Homo sapiens, HepG2, HepG2 cells; culture supernatant; absorption at 450 nm inhibited by 50% vs solvent control; read-out: Apo B IC50", "procedure": "as §1, §2, §3, §4", "units": {"IC50": "nM"}, "values": [{"smiles": "C[S+]([O-])c1nc2ccccc2n1Cc1ccc(C(C(=O)N[C@@H](CO)c2ccccc2)C2CCCCCC2)cc1", "note": "(mixture of isomers) [Example 79, 2-(R/S)-Cycloheptyl-N-(2-hydroxy-1-(R)-phenylethyl)-2-[4-(2-methyl-(R/S)-sulphinyl-benzimidazol-1-ylmethyl)phenyl]acetamide]", "IC50": 15.2}, {"smiles": "O=C(N[C@@H](CO)c1ccccc1)C(c1ccc(Cn2c(SCc3ccccc3)nc3ccccc32)cc1)C1CCCC1", "note": "(single isomer, unassigned) [Example 12]", "IC50": 12.6}, {"smiles": "Cc1nc2ccccc2c(=O)n1Cc1ccc(C(C(=O)N[C@@H](CO)c2ccccc2)C2CCCC2)cc1", "note": "(stereo partly drawn) [Example 1, 2-Cyclopentyl-N-(2-hydroxy-1-(R)-phenylethyl)-2-[4-(2-methyl-4-oxo-4H-quinazolin-3-yl-methyl)phenyl]acetamide]", "IC50": 44.4}, {"smiles": "CSc1nc2ccccc2n1Cc1ccc(C(C(=O)N[C@@H](CO)c2ccccc2)C2CCCC2)cc1", "note": "(some centres unmarked) [Example 2]", "IC50": 38.1}, {"smiles": "CSc1nc2ccccc2n1Cc1ccc(C(C(=O)N[C@@H](CO)c2ccccc2)C2CCCCCC2)cc1", "note": "(some centres unmarked) [Example 5]", "IC50": 36}, {"smiles": "CSc1nc2cc(C)c(C)cc2n1Cc1ccc(C(C(=O)N[C@@H](CO)c2ccccc2)C2CCCC2)cc1", "note": "(some centres unmarked) [Example 8]", "IC50": 4.7}, {"smiles": "CCSc1nc2ccccc2n1Cc1ccc(C(C(=O)N[C@@H](CO)c2ccccc2)C2CCCC2)cc1", "note": "(some centres unmarked) [Example 9]", "IC50": 2.8}, {"smiles": "C=CCSc1nc2ccccc2n1Cc1ccc(C(C(=O)N[C@@H](CO)c2ccccc2)C2CCCC2)cc1", "note": "(some centres unmarked) [Example 10]", "IC50": 9.5}, {"smiles": "O=C(N[C@@H](CO)c1ccccc1)C(c1ccc(Cn2c(SCc3ccccc3)nc3ccccc32)cc1)C1CCCC1", "note": "(some centres unmarked) [Example 11]", "IC50": 4.7}, {"smiles": "O=C(N[C@@H](CO)c1ccccc1)C(c1ccc(Cn2c(SCc3c(Cl)cccc3Cl)nc3ccccc32)cc1)C1CCCC1", "note": "(some centres unmarked) [Example 14]", "IC50": 130}, {"smiles": "O=C(N[C@@H](CO)c1ccccc1)C(c1ccc(Cn2c(Cc3ccccc3)nc3ccccc32)cc1)C1CCCC1", "note": "(some centres unmarked) [Example 20]", "IC50": 248}, {"smiles": "O=C(N[C@@H](CO)c1ccccc1)C(c1ccc(Cn2c(-c3cscn3)nc3ccccc32)cc1)C1CCCC1", "note": "(some centres unmarked) [Example 25]", "IC50": 7.3}, {"smiles": "O=C(N[C@@H](CO)c1ccccc1)C(c1ccc(Cn2c(-c3cscn3)nc3ccccc32)cc1)C1CCCCC1", "note": "(some centres unmarked) [Example 28]", "IC50": 27.9}, {"smiles": "O=C(N[C@@H](CO)c1ccccc1)C(c1ccc(Cn2c(-c3cscn3)nc3ccccc32)cc1)C1CCCCCC1", "note": "(some centres unmarked) [Example 29]", "IC50": 9.3}, {"smiles": "O=C(NCc1ccccc1)C(c1ccc(Cn2c(-c3cscn3)nc3ccccc32)cc1)C1CCCCCC1", "note": "(centres unmarked) [Example 32]", "IC50": 5.3}, {"smiles": "Cc1nc(-c2nc3ccccc3n2Cc2ccc(C(C(=O)N[C@@H](CO)c3ccccc3)C3CCCC3)cc2)cs1", "note": "(some centres unmarked) [Example 33]", "IC50": 5.3}, {"smiles": "O=C(N[C@@H](CO)c1ccccc1)C(c1ccc(Cn2c(-c3csc(-c4ccccc4)n3)nc3ccccc32)cc1)C1CCCC1", "note": "(some centres unmarked) [Example 36]", "IC50": 9.1}, {"smiles": "O=C(N[C@@H](CO)c1ccccc1)C(c1ccc(Cn2c(-c3ccsc3)nc3ccccc32)cc1)C1CCCC1", "note": "(some centres unmarked) [Example 37]", "IC50": 3.6}, {"smiles": "Cc1ccc2c(nc(-c3ccsc3)n2Cc2ccc(C(C(=O)N[C@@H](CO)c3ccccc3)C3CCCC3)cc2)c1C", "note": "(some centres unmarked) [Example 38]", "IC50": 36.3}, {"smiles": "O=C(N[C@@H](CO)c1ccccc1)C(c1ccc(Cn2c(-c3cccs3)nc3ccccc32)cc1)C1CCCC1", "note": "(some centres unmarked) [Example 39]", "IC50": 81.7}, {"smiles": "Cc1ccc2c(nc(-c3cccs3)n2Cc2ccc(C(C(=O)N[C@@H](CO)c3ccccc3)C3CCCC3)cc2)c1C", "note": "(some centres unmarked) [Example 40]", "IC50": 69}, {"smiles": "O=C(N[C@@H](CO)c1ccccc1)C(c1ccc(Cn2c(-c3cc4ccccc4s3)nc3ccccc32)cc1)C1CCCC1", "note": "(some centres unmarked) [Example 41]", "IC50": 10.6}, {"smiles": "O=C(N[C@@H](CO)c1ccccc1)C(c1ccc(Cn2c(-c3ccccn3)nc3ccccc32)cc1)C1CCCC1", "note": "(some centres unmarked) [Example 44]", "IC50": 11.3}, {"smiles": "O=C(N[C@@H](CO)c1ccccc1)C(c1ccc(Cn2c(-c3ccccn3)nc3ccccc32)cc1)C1CCCCCC1", "note": "(some centres unmarked) [Example 47]", "IC50": 18.8}, {"smiles": "O=C(NCc1ccccc1)C(c1ccc(Cn2c(-c3ccccn3)nc3ccccc32)cc1)C1CCCCCC1", "note": "(centres unmarked) [Example 48]", "IC50": 6.3}, {"smiles": "O=C(N[C@@H](CO)c1ccccc1)C(c1ccc(Cn2c(-c3cccnc3)nc3ccccc32)cc1)C1CCCC1", "note": "(some centres unmarked) [Example 49]", "IC50": 3.6}, {"smiles": "O=C(N[C@@H](CO)c1ccccc1)C(c1ccc(Cn2c(-c3ccncc3)nc3ccccc32)cc1)C1CCCC1", "note": "(some centres unmarked) [Example 50]", "IC50": 17.9}, {"smiles": "O=C(N[C@@H](CO)c1ccccc1)C(c1ccc(Cn2c(=O)oc3ccccc32)cc1)C1CCCCCC1", "note": "(some centres unmarked) [Example 51]", "IC50": 5.7}, {"smiles": "O=C(N[C@@H](CO)c1ccccc1)C(c1ccc(Cn2c(=S)[nH]c3ccccc32)cc1)C1CCCCCC1", "note": "(some centres unmarked) [Example 52]", "IC50": 518}, {"smiles": "O=C(N[C@@H](CO)c1ccccc1)C(c1ccc(CN2C(=O)CSc3ccccc32)cc1)C1CCCCCC1", "note": "(some centres unmarked) [Example 59]", "IC50": 29.2}]}]}
